Experiments:
[1] = Cmax in HIV-1 infected children at 10 to 15 mg/kg, po administered once daily by HPLC; format: ADME, organism-based; set-up: dose 10-15 mg/kg, route oral; details: human, in vivo
Homo sapiens [2] = assay: AUC (0 to t) in HIV-1 infected children at 14.4 mg/kg, po administered once daily by HPLC; format: ADME, organism-based, Plasma; set-up: dose 14.4 mg/kg, route oral; details: in vivo
[3] = Apparent oral clearance in HIV-1 infected children at 14.4 mg/kg, po administered once daily by HPLC; format: ADME, organism-based; set-up: dose 14.4 mg/kg, route oral; details: human, in vivo
Homo sapiens [4] = assay: AUC (0 to t) in HIV-1 infected children at 10 to 15 mg/kg, po administered once daily by HPLC; format: ADME, organism-based, Plasma; set-up: dose 10-15 mg/kg, route oral; details: in vivo
[5] = system: Human immunodeficiency virus 1; assay: Antiviral activity against HIV1 infected in children assessed as decrease in viral burden at 14.4 mg/kg once daily measured after 3 months; format: functional
[6] = Cmax in HIV-1 infected children at 14.4 mg/kg, po administered once daily by HPLC; format: ADME, organism-based; set-up: dose 14.4 mg/kg, route oral; details: human, in vivo
[7] = Apparent oral clearance in HIV-1 infected children at 13.3 mg/kg, po administered once daily by HPLC; format: ADME, organism-based; set-up: dose 13.3 mg/kg, route oral; details: human, in vivo
[8] = Apparent oral clearance in HIV-1 infected children at 12 mg/kg, po administered once daily by HPLC; format: ADME, organism-based; set-up: dose 12 mg/kg, route oral; details: human, in vivo
Homo sapiens [9] = assay: AUC (0 to t) in HIV-1 infected children at 12 mg/kg, po administered once daily by HPLC; format: ADME, organism-based, Plasma; set-up: dose 12 mg/kg, route oral; details: in vivo
[10] = Cmax in HIV-1 infected children at 12 mg/kg, po administered once daily by HPLC; format: ADME, organism-based; set-up: dose 12 mg/kg, route oral; details: human, in vivo

Cmax [1]: 5520 ng/mL
AUC (Homo sapiens [2]): 65200 ng·h/mL
CL/F [3]: 3.5 mL/min/kg
AUC (Homo sapiens [4]): 63600 ng·h/mL
Cmax [6]: 3710 ng/mL
CL/F [7]: 5 mL/min/kg
CL/F [8]: 3.17 mL/min/kg
AUC (Homo sapiens [9]): 60000 ng·h/mL
Cmax [10]: 4090 ng/mL
Compound: O=C1Nc2ccc(Cl)cc2[C@@](C#CC2CC2)(C(F)(F)F)O1 [EFAVIRENZ]
fold change (FC) [5]: 2.5
